Reference: patent US10933141B2, “Formulations with reduced degradation of polysorbate” (Genentech, Inc., priority 2015, dated 2021)

What was measured:
[1] = system: Rabbit Liver Esterase (RLE); experiment: Enzymatic degradation of PS20 by RLE, PS20 by RP-ELSD; type: biochemical; conditions: 15% w/v HP-β-CD; 0.02% PS20, pH 5.5; 15 μg/mL RLE, 5 hours, room temperature
Experimental: (§1) Polysorbate concentration was determined using reverse phase ultra-performance liquid chromatography using evaporative light scattering detection (RP-ELSD). Samples were analyzed using an Agilent 1100 series high performance liquid chromatography system (HPLC) fitted with a Waters Oasis MAX cartridge column (20×2.1 mm, 30 μm particle size). The HPLC system was set up with a switching valve directing column flow-through to either waste or a Varian 380-LC evaporative light scattering detector set to 100° C. The mobile phases consisted of 2% formic acid in water (Pump A) and 2% formic acid in isopropanol (Pump B). […] In order to quantitate the PS20 concentration, a standard curve was generated by injecting 20 μL of solutions containing between 0% w/v and 0.4% w/v PS20. For excipients which affected the migration time of PS20 through the column, PS20 standard curve solutions containing the relevant excipient were included in the analysis to facilitate accurate quantitation.
The effect of 15% HP-β-CD on the enzymatic degradation of PS20 was measured. […]
PPL digestion was stopped by heat inactivation in an 85° C. water bath for 30 minutes. LPL and RLE digestion could not be stopped by heat inactivation, so the samples were analyzed immediately for PS20 content. […]

CALB, RLE, and LPL = experiment: PS20 loss and subvisible particles after digestion, summary across CALB, LPL and RLE; type: biochemical; conditions: 15% (w/v) HP-β-CD vs 0%; ≥2, ≥5, ≥10, ≥25 micron; HIAC
Experimental: (§2) Subvisible particles were measured using a HIAC 9703 particle counter equipped with an HRDL-150 detector and a 1 mL syringe. Performance of the instrument was verified with NIST-traceable 2 μm Polystyrene bead standards at 3000 counts/mL before each measurement session. The HIAC instrument was configured to a 10 mL/min flow rate, 0.1 mL tare volume, and 0.4 mL sample volume. The samples were analyzed using 4 runs of 0.4 mL sips, with the first run of each sample was discarded to prevent measurement error due to sample carryover. Results were reported as the average values for 1.4, 2, 5, 10, 15, and 25, 50 μm analysis filter sizes.
as §1, with “size).” for “size). The HPLC system was set up with a switching valve directing column flow-through to either waste or a Varian 380-LC evaporative light scattering detector set to 100° C. The mobile phases consisted of 2% formic acid in water (Pump A) and 2% formic acid in isopropanol (Pump B).”, “quantitation. […]” for “quantitation.”

[2] = target: T1, porcine pancreatic lipase (PPL) (Sus scrofa, UniProt P00591); experiment: Enzymatic degradation of PS80 by PPL (RP-ELSD, HIAC); type: biochemical
T1 construct: purchased Sigma Aldrich Inc. (St. Louis, Mo.)
T1 sequence (P00591 1-450): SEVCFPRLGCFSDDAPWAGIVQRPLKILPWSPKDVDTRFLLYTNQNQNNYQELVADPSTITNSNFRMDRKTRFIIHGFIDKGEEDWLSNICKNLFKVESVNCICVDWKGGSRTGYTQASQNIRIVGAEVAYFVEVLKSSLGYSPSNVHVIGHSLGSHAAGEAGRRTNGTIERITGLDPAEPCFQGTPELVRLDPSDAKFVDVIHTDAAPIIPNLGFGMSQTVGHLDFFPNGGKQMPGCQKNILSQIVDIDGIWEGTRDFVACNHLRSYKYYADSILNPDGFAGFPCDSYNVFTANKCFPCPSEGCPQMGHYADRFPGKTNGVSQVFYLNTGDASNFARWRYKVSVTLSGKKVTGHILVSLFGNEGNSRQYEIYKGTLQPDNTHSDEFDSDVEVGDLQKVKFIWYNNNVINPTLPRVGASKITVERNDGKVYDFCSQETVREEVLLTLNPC
Experimental: as §2
as §1, with “size).” for “size). The HPLC system was set up with a switching valve directing column flow-through to either waste or a Varian 380-LC evaporative light scattering detector set to 100° C. The mobile phases consisted of 2% formic acid in water (Pump A) and 2% formic acid in isopropanol (Pump B).”, “quantitation. […]” for “quantitation.”

PPL enzyme = target: T2, PPL enzyme (Sus scrofa, UniProt P00591); experiment: PPL degradation of PS20 in mAb, BsAb and sFAb samples, PS20 by RP-ELSD; type: biochemical, porcine; conditions: 5% and 15% HPβCD, BsAb, sFAb 20 mg/mL and control, 0.02% PS20, 20 mM histidine acetate pH 5.5, 15 μg/mL PPL 4.5 hours
T2 construct: purchased Sigma Aldrich Inc. (St. Louis, Mo.)
T2 sequence (P00591 1-450): T1 sequence (P00591 1-450)
Experimental: as §1
The impact of various protein molecule classes (e.g., monoclonal antibody (mAb), single-Fab antibody (sFAb), and bispecific antibody(BsAb)) was assessed on the ability of cyclodextrins to decrease enzymatic PS20 degradation. […] Each sample was analyzed for PS20 concentration using high performance liquid chromatography with an inline evaporative light scattering detector. […]

2-hydroxypropyl-β-cyclodextrin [HP-β-CD]
Polysorbate 20 (Relative %) [1]: 62.7% | subvisible particulates (SVP/mL) after enzymatic degradation (CALB, RLE, and LPL): fewer SVP/mL | subvisible particulates (SVP/mL) after PPL degradation of PS80 ([2]; 15% (w/v) HP-β-CD vs 0%, ≥1.4 to ≥25 micron, HIAC): fewer SVP/mL | decrease in PS80 ([2]; 15% (w/v) HP-β-CD, 0.02% (w/v) PS80, pH 5.5, 15 μg/mL PPL, 5 hours, room temperature): approximately 4% | mitigation of catalytic PS20 degradation across molecular formats (in words) (PPL enzyme): equally effective at mitigating catalytic PS20 degradation
